How the values were obtained:
Notch 1 = experiment: Notch-CBF1 Transactivation Assay (Notch 1); format: cell-based; details: HeLa cells, luciferase, rounded to 2 digits, read-out: Notch 1 (IC50)
Excerpt: (§1) Table 12 denotes respective DNA quantity for the transfections.
(§2) Duplicates were used for each sample.

Notch 3 = experiment: Notch-CBF1 Transactivation Assay (Notch 3); format: cell-based; details: HeLa cells, luciferase, rounded to 2 digits, read-out: Notch 3 (IC50)
Excerpt: as §1, §2

[1] = High Throughput (HT) Metabolic Stability Panel, human liver microsomes; details: human, microsomes, 10 min, 0.5 µM, pH 7.4
Method: (§3) Each compound was tested in duplicate.

[2] = High Throughput (HT) Metabolic Stability Panel, mouse liver microsomes; details: mouse, microsomes, 10 min, 0.5 µM, pH 7.4
Method: as §3

[3] = system: TALL1 Human T-cell acute lymphoblastic leukemia; experiment: Human tumor xenograft model in mice: TALL1; format: in vivo
[4] = system: human breast carcinoma cell line MDA-MB-157; experiment: Human tumor xenograft model in mice: MDA-MB-157; format: in vivo
[5] = system: ALL-SIL T-cell lymphoblastic leukemia; experiment: Human tumor xenograft model in mice: ALL-SIL (combination with dasatinib); format: in vivo; details: for Tumor Growth Delay / Tumor Growth Delay (LCK): target tumor size 1000 mg
[6] = system: MDA-MB-468 Human Breast Carcinoma; experiment: Human tumor xenograft model in mice: MDA-MB-468 (combination with paclitaxel); format: in vivo; details: for Tumor Growth Delay / Tumor Growth Delay (LCK): target tumor size 500 mg
[7] = system: ER receptor positive human breast carcinoma xenograft MCF7; experiment: Human tumor xenograft model in mice: MCF7 (combination with Tamoxifen); format: in vivo; details: for Tumor Growth Inhibition TGI: target tumor size 500 mg
[8] = system: human T-ALL leukemia xenografts HPB-ALL; experiment: Human tumor xenograft model in mice: HPB-ALL (combination with dexamethasone); format: in vivo; details: for Tumor Growth Delay / Tumor Growth Delay (LCK): target tumor size 3000 mg
[9] = system: human ovarian teratocarcinoma xenograft PA-1; experiment: Human tumor xenograft model in mice: PA-1 (combination with carboplatin); format: in vivo
human tumor xenografts = experiment: Human Tumor Xenograft Models in Mice (various tumors); format: in vivo; details: for Antitumor Activity (% TGI): PO, QD × 15, 10 day-on-2 day-off, 5-10 mg/kg/adm
[10] = 7.5-10 mg/kg, oral, QD × 15, 10 Day-on-2 Day-off
[11] = Example 1 3.75 mg/kg PO, QD x 3, weekly x 7
[12] = Example 1 […] PO, QD x 3, weekly x 7
[13] = Example 1 3.75 mg/kg PO, QD ×3, weekly ×3
[14] = Example 1 3.75 mg/kg PO, QD x 3, weekly x 3
[15] = Example 1 […] PO, QD x 3, weekly x 3
[16] = Example 1 1 mg/kg PO, QD x 21, target tumor size 500 mg

Structure (SMILES): CN1C(=O)[C@@H](NC(=O)[C@H](CCC(F)(F)F)[C@H](CCC(F)(F)F)C(N)=O)N=C(c2ccccc2)c2ccccc21 [Example 1, (2R,3S)—N-((3S)-1-Methyl-2-oxo-5-phenyl-2,3-dihydro-1H-1,4-benzodiazepin-3-yl)-2,3-bis(3,3,3-trifluoropropyl)succinamide]
- IC50 (Notch 1): 1.6 nM
- IC50 (Notch 3): 3.4 nM
- 0.5 μM HLM (% Remaining) [1]: 97%
- 0.5 μM MsLM (% Remaining) [2]: 91%
- Antitumor Activity TALL1 (LCK) [3, 10]: >4.7 LCK
- Antitumor Activity (% TGI) ([3]; TALL1, T-Cell acute lymphoblastic leukemia, PO, QD × 15, 10 day-on-2 day-off, 5-10 mg/kg/adm): 112 % TGI
- antitumor activity ([3]; intravenous route (IV), FIG. 6: TALL1, 5 mg/kg/adm, QD×3, IV): exhibited antitumor activity
- Antitumor Activity MDA-MB-157 (% TGI) [4, 10]: 89 % TGI
- Antitumor Activity (% TGI) ([4]; MDA-MB157, TN breast cancer, PO, QD × 15, 10 day-on-2 day-off, 5-10 mg/kg/adm): 81 % TGI
- CR (%) [5, 11]: 0%
- PR (%) [5, 11]: 0%
- Tumor Growth Delay [5, 11]: 8.7 days
- Tumor Growth Delay (LCK) [5, 11]: 0.5 LCK
- Tumor Growth Delay [5, 12]: 1.9 days
- Tumor Growth Delay (LCK) [5, 12]: 0.1 LCK
- complete response (CR) ([5]; single agent): none of the single agent produced CR
- CR (%) [6, 11]: 0%
- PR (%) [6, 11]: 0%
- Tumor Growth Delay [6, 11]: 7.8 days
- Tumor Growth Delay (LCK) [6, 11]: 0.5 LCK
- Tumor Growth Delay [6, 12]: 21.2 days
- Tumor Growth Delay (LCK) [6, 12]: 1.4 LCK
- Antitumor Activity (% TGI) ([6]; MDA-MB468, TN breast cancer, single agent, PO, QD × 15, 10 day-on-2 day-off, 5-10 mg/kg/adm): 91 % TGI
- Antitumor Activity MDA-MB-468 (% TGI) ([6]; single agent, 7.5-10 mg/kg, oral, QD × 15, 10 Day-on-2 Day-off): 78 % TGI
- CR (%) [7, 13]: 0%
- PR (%) [7, 13]: 0%
- Tumor Growth Inhibition TGI [7, 13]: 43%
- Tumor Growth Inhibition TGI ([7]; Example 1 […] PO, QD ×3, weekly ×3): 58%
- Antitumor Activity (% TGI) ([7]; MCF7, estrogen-dependent breast cancer, single agent, PO, QD × 15, 10 day-on-2 day-off, 5-10 mg/kg/adm): 73 % TGI
- CR or PR ([7]; single agent): no CR or PR
- CR (%) [8, 14]: 0%
- PR (%) [8, 14]: 0%
- Tumor Growth Delay [8, 14]: 7.8 days
- Tumor Growth Delay (LCK) [8, 14]: 0.9 LCK
- Tumor Growth Delay [8, 15]: 9.5 days
- Tumor Growth Delay (LCK) [8, 15]: 1.1 LCK
- antitumor efficacy (LCK) ([8]; Example 1 as a single agent at 7.5 mpk): 1.1 LCK
- CR (%) ([9]; Example 1 1 mg/kg PO, QD x 21): 0%
- Cure (%) ([9]; Example 1 1 mg/kg PO, QD x 21): 0%
- PR (%) ([9]; Example 1 1 mg/kg PO, QD x 21): 0%
- Tumor Growth Delay [9, 16]: 4 days
- Tumor Growth Delay (LCK) [9, 16]: 0.2 LCK
- antitumor effect (LCK) ([9]; Example 1 as a single agent, 1 mg/kg/adm): 0.2 LCK
- Antitumor Activity (% TGI) (human tumor xenografts; BT-474, HER2+ breast cancer): 96 % TGI
- Antitumor Activity (% TGI) (human tumor xenografts; Calu-6, Non small cell lung cancer): 81 % TGI
- Antitumor Activity (% TGI) (human tumor xenografts; G292, osteogenic sarcoma): 75 % TGI
- Antitumor Activity (% TGI) (human tumor xenografts; HCT116, colon cancer): 75 % TGI
- Antitumor Activity (% TGI) (human tumor xenografts; MCF7i, estrogen-independent breast cancer): 63 % TGI
- Antitumor Activity (% TGI) (human tumor xenografts; Pat-21/Abx R, TN breast cancer (abx R)): 73 % TGI
- Antitumor Activity (% TGI) (human tumor xenografts; Pat-24, pancreatic cancer): 111 % TGI
- Antitumor Activity (% TGI) (human tumor xenografts; Pat-26, pancreatic cancer): 93 % TGI
- Antitumor Activity (% TGI) (human tumor xenografts; Pat-34, ovarian cancer): 89 % TGI
- Antitumor Activity (% TGI) (human tumor xenografts; Pat-50, ovarian cancer): 91 % TGI
- Antitumor Activity (% TGI) (human tumor xenografts; SK-N-AS, neuroblastoma): 67 % TGI
- Antitumor Activity (% TGI) (human tumor xenografts; U-87, glioblastoma multiforme (GBM)): 82 % TGI
- antitumor activity (human tumor xenografts; oral administration (PO)): showed antitumor activity
- human cancer xenografts in which significant antitumor activity was demonstrated (human tumor xenografts; xenografts grown in mice): 16

Reference: US20150284342A1, “BIS(FLUOROALKYL)-1,4-BENZODIAZEPINONE COMPOUNDS” (BRISTOL-MYERS SQUIBB COMPANY, priority 2011, published 2015)
